Assay results taken from PubChem BioAssay (NCI).
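Following 48 hours of exposure in 96-well plates, responses at five concentrations were used to interpolate endpoints linearly. At the GI50, growth is halved. Definition used: TGI = concentration required for complete inhibition of growth.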 Where a SMILES comes first, the peptide text is derived from it. [ ]: non-standard residue; d: D form. pGlu = O=C1CC[CH](C(=O)O)N1

How the values were obtained:
Assay in all cases: NCI tumour cell line growth inhibition, 48 h
ACHN renal = tested on: ACHN renal
DU-145 prostate = tested on: DU-145 prostate
HCT-15 colon = tested on: HCT-15 colon
HT29 colon = tested on: HT29 colon
IGROV1 ovarian = tested on: IGROV1 ovarian
MALME-3M melanoma = tested on: MALME-3M melanoma
NCI-H23 lung = tested on: NCI-H23 lung
RXF 393 renal = tested on: RXF 393 renal
SF-295 CNS = tested on: SF-295 CNS
SK-MEL-28 melanoma = tested on: SK-MEL-28 melanoma

Compound	GI50 (ACHN renal) [µM]	TGI (ACHN renal) [µM]	GI50 (DU-145 prostate) [µM]	TGI (DU-145 prostate) [µM]	GI50 (HCT-15 colon) [µM]	GI50 (HT29 colon) [µM]	TGI (HT29 colon) [µM]	GI50 (IGROV1 ovarian) [µM]	TGI (IGROV1 ovarian) [µM]	GI50 (MALME-3M melanoma) [µM]	TGI (MALME-3M melanoma) [µM]	GI50 (NCI-H23 lung) [µM]	TGI (NCI-H23 lung) [µM]	GI50 (RXF 393 renal) [µM]	TGI (RXF 393 renal) [µM]	GI50 (SF-295 CNS) [µM]	TGI (SF-295 CNS) [µM]	GI50 (SK-MEL-28 melanoma) [µM]	TGI (SK-MEL-28 melanoma) [µM]	TGI (HCT-15 colon) [µM]
O=C1C(Cl)=C(Nc2cccc(F)c2)C(=O)N1Cc1ccc(Cl)cc1	2.54	15.2	2.67	8.44	0.398	0.911	12.9	2.92	16.9	1.42	10.8	0.832	14.4	0.39	4.91	1.16	10.9	2.96	20.6	–
O=c1[nH]c(=O)c2cn[nH]c2[nH]1	> 100	> 100	> 100	> 100	> 100	> 100	> 100	> 100	> 100	> 100	> 100	> 100	> 100	> 100	> 100	> 100	> 100	> 100	> 100	> 100
C=CCN=c1sc2c(n1NC(=O)c1cc3ccc1CCc1ccc(cc1)CC3)C(=O)c1ccccc1C2=O	1.42	2.91	1.85	3.45	1.52	3.09	> 100	1.13	3.21	0.383	1.58	1.46	3.76	1.35	2.71	1.68	3.08	1.87	3.35	3.5
N#CC1(C#N)C2(c3ccccc3)OC(c3ccccc3)(c3cc4ccccc4cc32)C1(C#N)C#N	–	28.5	–	28.5	–	–	29.3	–	31.2	–	37.9	–	16.6	–	13.8	–	29.9	–	26.1	26.7
O=c1[nH]nnc2c1ncn2C1OC(CO)C(O)C1O (stereo not given)	1.8	> 100	1.38	> 100	8.04	13	> 100	2.96	> 100	7.25	> 100	14.5	> 100	14.1	> 100	1.65	47	68.3	> 100	> 100
O=C(c1ccccc1)c1ccccc1-c1ccccc1	9.46	> 100	3.36	38.2	2.74	0.986	14.3	3.32	> 100	8.79	65.7	4.46	> 100	3.17	22.7	1.85	29	7.52	> 100	> 100
CCCCON(OC(=O)c1ccc2ccccc2c1)C(=O)c1ccccc1	> 100	> 100	> 100	> 100	> 100	> 100	> 100	44.1	> 100	> 100	> 100	90.2	> 100	> 100	> 100	> 100	> 100	> 100	> 100	> 100
O=C1C(Cl)=C(Nc2cccc(Cl)c2)C(=O)N1Cc1ccc(Cl)cc1	1.39	15	2.72	11.4	0.43	0.758	31.3	1.19	> 39.3	0.137	2.84	0.378	2.12	0.778	22.6	0.532	15.6	3.12	23.5	13
CC(C)Cn1cnc2c(SCc3ccc(Cl)cc3Cl)nc(N)nc21	–	76.5	–	> 100	–	–	> 100	–	> 100	–	71.6	–	> 100	–	> 100	–	> 100	–	> 100	> 100
CCNC(=O)C1CCCN1C(=O)C(CCCN=C(N)N)NC(=O)C(CC(C)C)NC(=O)C(CC(C)C)NC(=O)C(Cc1ccc(O)cc1)NC(=O)C(CO)NC(=O)C(Cc1c[nH]c2ccccc12)NC(=O)C(Cc1cnc[nH]1)NC(=O)C1CCC(=O)N1 (stereo not given) ([pGlu]HWSYLLRP-NHEt; configuration not given here)	> 100	> 100	> 100	> 100	> 100	> 100	> 100	> 100	> 100	> 100	> 100	> 100	> 100	> 100	> 100	> 100	> 100	> 100	> 100	> 100
Oc1c(-c2nnc(-c3ccccc3Cl)o2)sc2nnc(-c3ccccc3)c(-c3ccccc3)c12	3.46	89.7	8.26	> 100	0.813	4.06	20.8	2.47	8.78	4.22	33.1	4.87	> 100	24.6	> 100	1.89	15.6	16.4	> 100	> 100
N#Cc1ccc(OCc2nc(N)nc(N)c2-c2ccc(Cl)c(Cl)c2)cc1	0.8	> 100	3.6	> 100	0.525	0.592	> 100	1.73	> 100	23.5	84.8	–	–	0.597	30	0.725	> 100	4.39	40.2	> 100
COc1ccc(/C=C/C(=O)c2cc(OC)c(OC)c(OC)c2)cc1OCc1cn(Cc2ccc(F)cc2)nn1	3.53	16.7	2.59	6.64	2.04	3	7.3	7.4	> 100	72.5	> 100	18.9	64.2	1.9	5.51	–	–	5.62	35.5	> 100
